Results reported in ChEMBL document CHEMBL5505996, “Discovery of novel osthole derivatives exerting anti-inflammatory effect on DSS-induced ulcerative colitis and LPS-induced acute lung injury in mice” (Eur J Med Chem, 2024).
Calls of active or inactive are those of the source. No cut-off for these calls is given here.

Key:
[1] = biological target: Mitogen-activated protein kinase kinase kinase 7 (Homo sapiens) (UniProt O43318); assay: Inhibition of TAK1 (unknown origin) at 10 uM relative to control
[2] = biological target: Interleukin-1 receptor-associated kinase 1 (Homo sapiens) (UniProt P51617); assay: Inhibition of IRAK1 (unknown origin) at 10 uM relative to control
[3] = tested on: Mus musculus; assay: (§1) Antiinflammatory activity against C57BL/6 mouse model of LPS induced acute lung injury assessed as reduction in TNF-alpha mRNA expression in lung at 20 mg/kg, po administered every 12 hrs for 3 times followed by LPS stimulation for 6 hrs starting from 30 mins post last dose by RT-qPCR analysis; type: functional, organism-based; settings: time 42.5 hrs
[4] = tested on: THP-1; assay: Antiinflammatory activity against LPS-induced PMA-differentiated human THP-1 cells assessed as inhibition of TNF-alpha release pretreated for 30 mins followed by LPS stimulation and measured after 24 hrs by ELISA; type: functional, cell-based
[5] = Acute toxicity in ICR mouse assessed as pathological changes in heart at 500 mg/kg, po measured daily for 10 days by H and E staining based analysis; type: organism-based; settings: in vivo, 240 h, time 10 day
[6] = tested on: Mus musculus; assay: Antiinflammatory activity against C57BL/6 mouse model of DSS induced ulcerative colitis assessed as protection against mucosal damage at 20 mg/kg, po administered daily for 10 days by H and E staining based analysis; type: functional, organism-based; settings: time 10.0 day
[7] = tested on: Mus musculus; assay: as §1, with “thickening of alveolar septa” for “TNF-alpha mRNA expression in lung”, “H and E staining based” for “RT-qPCR”; type: functional, organism-based; settings: time 42.5 hrs
[8] = tested on: Mus musculus; assay: Antiinflammatory activity against C57BL/6 mouse model of DSS induced ulcerative colitis assessed as reversal of weight loss at 20 mg/kg, po administered daily for 10 days; type: functional, organism-based; settings: time 10.0 day
[9] = tested on: RAW264.7; assay: Potency index, ratio of osthole IC50 to test compound IC50 for antiinflammatory activity against LPS-induced mouse RAW264.7 cells assessed as inhibition of TNF-alpha release pretreated for 30 mins followed by LPS stimulation and measured after 24 hrs by ELISA; type: functional; settings: time 24.5 hrs
[10] = Acute toxicity in ICR mouse assessed as pathological changes in lung at 500 mg/kg, po measured daily for 10 days by H and E staining based analysis; type: organism-based; settings: in vivo, 240 h, time 10 day
[11] = tested on: J774.A1; assay: Cytotoxicity against mouse J774.A1 cells assessed as reduction in cell proliferation at 10 uM measured after 24 hrs by CCK-8 assay; type: toxicity, cell-based; settings: j774.a1, 24 h
[12] = tested on: THP-1; assay: Antiinflammatory activity against LPS-induced PMA-differentiated human THP-1 cells assessed as inhibition of IL-6 release pretreated for 30 mins followed by LPS stimulation and measured after 24 hrs by ELISA; type: functional, cell-based
[13] = tested on: J774.A1; assay: Inhibition of MAPK signaling pathway in LPS-stimulated mouse J774.A1 cells assessed as reduction in JNK phosphorylation at 10 uM pretreated for 2 hrs followed by LPS stimulation and measured after 30 mins by Western blot analysis; type: cell-based; settings: time 2.5 hrs
[14] = AUC (0 to t) in male Sprague-Dawley rat at 10 mg/kg, po by UPLC-MS/MS analysis; type: ADME, organism-based; settings: in vivo
[15] = Tmax in male Sprague-Dawley rat at 10 mg/kg, po by UPLC-MS/MS analysis; type: ADME, organism-based; settings: in vivo
[16] = tested on: J774.A1; assay: Inhibition of NFkappaB signaling pathway in LPS-induced mouse J774.A1 cells assessed as reduction in p65 phosphorylation pretreated for 2 hrs followed by LPS stimulation and measured after 30 mins by Western blot analysis; type: cell-based; settings: time 2.5 hrs
[17] = tested on: RAW264.7; assay: Potency index, ratio of osthole IC50 to test compound IC50 for antiinflammatory activity against LPS-induced mouse RAW264.7 cells assessed as inhibition of IL-6 release pretreated for 30 mins followed by LPS stimulation and measured after 24 hrs by ELISA; type: functional; settings: time 24.5 hrs
[18] = tested on: Mus musculus; assay: Antiinflammatory activity against C57BL/6 mouse model of LPS induced acute lung injury assessed as reduction in total number of cells in BALF at 20 mg/kg, po administered every 12 hrs for 3 times followed by LPS stimulation for 6 hrs starting from 30 mins post last dose; type: functional, organism-based; settings: time 42.5 hrs
[19] = Acute toxicity in ICR mouse assessed as pathological changes in kidney at 500 mg/kg, po measured daily for 10 days by H and E staining based analysis; type: organism-based; settings: in vivo, 240 h, time 10 day
[20] = tested on: Mus musculus; assay: Antiinflammatory activity against C57BL/6 mouse model of LPS induced acute lung injury assessed as reduction in IL-6 level in BALF at 20 mg/kg, po administered every 12 hrs for 3 times followed by LPS stimulation for 6 hrs starting from 30 mins post last dose by ELISA; type: functional, organism-based; settings: time 42.5 hrs
[21] = tested on: J774.A1; assay: Antiinflammatory activity against LPS-induced mouse J774.A1 cells assessed as inhibition of TNF-alpha release pretreated for 30 mins followed by LPS stimulation and measured after 24 hrs by ELISA; type: functional, cell-based
[22] = Acute toxicity in ICR mouse assessed as pathological changes in liver at 500 mg/kg, po measured daily for 10 days by H and E staining based analysis; type: organism-based; settings: in vivo, 240 h, time 10 day
[23] = tested on: Mus musculus; assay: Antiinflammatory activity against C57BL/6 mouse model of DSS induced ulcerative colitis assessed as protection against goblet cell depletion at 20 mg/kg, po administered daily for 10 days by H and E staining based analysis; type: functional, organism-based; settings: time 10.0 day
[24] = tested on: Mus musculus; assay: Antiinflammatory activity against C57BL/6 mouse model of LPS induced acute lung injury assessed as reduction in interstitial edema at 20 mg/kg, po administered every 12 hrs for 3 times followed by LPS stimulation for 6 hrs starting from 30 mins post last dose by H and E staining based analysis; type: functional, organism-based; settings: time 42.5 hrs
[25] = tested on: Mus musculus; assay: Antiinflammatory activity against C57BL/6 mouse model of DSS induced ulcerative colitis assessed as reduction in inflammatory cytokines infiltration in intestine at 20 mg/kg, po administered daily for 10 days by immunohistochemical staining based analysis; type: functional, organism-based; settings: time 10.0 day
[26] = Acute toxicity in ICR mouse assessed as pathological changes in spleen at 500 mg/kg, po measured daily for 10 days by H and E staining based analysis; type: organism-based; settings: in vivo, 240 h, time 10 day
[27] = Half life in male Sprague-Dawley rat at 10 mg/kg, po by UPLC-MS/MS analysis; type: ADME, organism-based; settings: in vivo
[28] = tested on: J774.A1; assay: Inhibition of MAPK signaling pathway in LPS-stimulated mouse J774.A1 cells assessed as reduction in ERK1/2 phosphorylation at 10 uM pretreated for 2 hrs followed by LPS stimulation and measured after 30 mins by Western blot analysis; type: cell-based; settings: time 2.5 hrs
[29] = tested on: J774.A1; assay: Antiinflammatory activity against LPS-induced mouse J774.A1 cells assessed as inhibition of IL-6 release pretreated for 30 mins followed by LPS stimulation and measured after 24 hrs by ELISA; type: functional, cell-based
[30] = Acute toxicity in ICR mouse assessed as effect on daily activities at 500 mg/kg, po measured daily for 10 days; type: organism-based; settings: in vivo, 240 h, time 10 day
[31] = Acute toxicity in ICR mouse assessed as effect on physiological status at 500 mg/kg, po measured daily for 10 days; type: organism-based; settings: in vivo, 240 h, time 10 day
[32] = tested on: J774.A1; assay: Inhibition of NFkappaB signaling pathway in LPS-induced mouse J774.A1 cells assessed as reduction in IkappaBalpha degradation pretreated for 2 hrs followed by LPS stimulation and measured after 30 mins by Western blot analysis; type: cell-based; settings: time 2.5 hrs

Mitogen-activated protein kinase kinase kinase 7 (Homo sapiens), sequence (O43318 whole entry, looked up): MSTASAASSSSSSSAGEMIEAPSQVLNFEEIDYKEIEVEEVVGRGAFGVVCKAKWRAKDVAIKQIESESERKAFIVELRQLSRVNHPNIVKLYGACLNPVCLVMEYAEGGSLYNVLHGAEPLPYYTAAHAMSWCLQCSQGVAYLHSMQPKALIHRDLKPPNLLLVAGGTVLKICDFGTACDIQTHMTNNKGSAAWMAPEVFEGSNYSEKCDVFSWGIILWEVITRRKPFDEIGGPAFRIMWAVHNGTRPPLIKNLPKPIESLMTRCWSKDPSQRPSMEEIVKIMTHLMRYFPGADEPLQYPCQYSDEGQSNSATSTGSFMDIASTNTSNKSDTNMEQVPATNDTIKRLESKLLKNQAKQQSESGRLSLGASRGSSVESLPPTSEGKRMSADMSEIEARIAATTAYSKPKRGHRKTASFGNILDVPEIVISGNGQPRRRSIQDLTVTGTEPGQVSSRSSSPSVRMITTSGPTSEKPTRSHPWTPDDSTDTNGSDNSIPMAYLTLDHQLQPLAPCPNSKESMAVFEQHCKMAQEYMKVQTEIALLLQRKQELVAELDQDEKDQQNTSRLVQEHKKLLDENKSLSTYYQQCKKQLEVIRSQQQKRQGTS
Interleukin-1 receptor-associated kinase 1 (Homo sapiens), sequence (P51617 whole entry, looked up): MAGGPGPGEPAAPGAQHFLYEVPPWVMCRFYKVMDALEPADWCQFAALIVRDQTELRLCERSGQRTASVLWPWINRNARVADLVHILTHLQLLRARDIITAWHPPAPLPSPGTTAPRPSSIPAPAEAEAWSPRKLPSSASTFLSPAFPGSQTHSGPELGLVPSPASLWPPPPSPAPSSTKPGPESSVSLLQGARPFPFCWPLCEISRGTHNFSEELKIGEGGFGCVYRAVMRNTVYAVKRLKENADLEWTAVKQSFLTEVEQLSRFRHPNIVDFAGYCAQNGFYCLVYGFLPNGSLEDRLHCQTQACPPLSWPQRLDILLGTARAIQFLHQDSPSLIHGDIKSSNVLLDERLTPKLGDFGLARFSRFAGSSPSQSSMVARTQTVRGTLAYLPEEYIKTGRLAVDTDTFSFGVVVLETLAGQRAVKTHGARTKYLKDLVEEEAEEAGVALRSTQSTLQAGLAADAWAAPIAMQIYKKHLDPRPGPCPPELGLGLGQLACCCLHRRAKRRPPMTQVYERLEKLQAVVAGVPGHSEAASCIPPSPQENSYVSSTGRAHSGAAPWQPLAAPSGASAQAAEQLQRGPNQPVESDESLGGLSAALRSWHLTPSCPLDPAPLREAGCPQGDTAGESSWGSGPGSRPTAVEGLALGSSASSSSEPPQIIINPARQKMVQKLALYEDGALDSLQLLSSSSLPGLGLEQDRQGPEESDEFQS

## CC(C)=CCc1c(OCCCCNCCN2CCOCC2)ccc2ccc(=O)oc12
[1]
  inhibition: 5.23%
[2]
  inhibition: 10.3%
[3]
  Activity: Active
[4]
  IC50: 27.4 µM
[5]
  Activity: Non-Toxic
[6]
  Activity: Active
[7]
  Activity: Active
[8]
  Activity: Active
[9]
  Ratio IC50: 3.8
[10]
  Activity: Non-Toxic
[11]
  Activity: Non-Toxic
[12]
  IC50: 10.6 µM
[13]
  inhibition: Active
[14]
  AUC(0-t): 1120 ng·h/mL
[15]
  Tmax: 3.33 h
[16]
  inhibition: inactive
[17]
  Ratio IC50: 32
[18]
  Activity: Active
[19]
  Activity: Non-Toxic
[20]
  Activity: Active
[21]
  IC50: 18.1 µM
[22]
  Activity: Non-Toxic
[23]
  Activity: Active
[24]
  Activity: Active
[25]
  Activity: Active
[26]
  Activity: Non-Toxic
[27]
  half-life: 10.7 h
[28]
  inhibition: inactive
[29]
  IC50: 4.23 µM
[29]; time 24.5 hrs
  Activity: Dose-Dependent Effect
[30]
  Activity: Non-Toxic
[31]
  Activity: Non-Toxic
[32]
  inhibition: inactive
